Where a name gives a salt, the structure may show the parent alone.

The first series concerns male OF1 mice. Put plainly: test of analgesia: abdominal tractions induced with PBQ (phenylbenzoquinone) i.p. It counts as in vivo, mouse. The conditions noted are these: (a) 1 mg/kg p.o. at 2 hours, PBQ 2 mg/kg i.p. The protocol: The in vivo activity of the compounds of the invention was evaluated in a test of analgesia.
Thus, the intraperitoneal (i.p.) administration of PBQ (phenylbenzoquinone, 2 mg/kg in 0.9% sodium chloride solution containing 5% ethanol) to male OF1 mice weighing 25 to 30 g, causes abdominal tractions, on average 30 torsions or contractions during the period of 5 to 15 minutes after injection. The test compounds are administered orally or intraperitoneally as a 0.5% suspension in Tween 80, 60 minutes or 120 minutes before the administration of PBQ. Under these conditions, the most powerful compounds of the invention produce a 35% to 70% reduction in the number of tractions induced with PBQ, within a dose range of between 1 and 30 mg/kg.
Consider `CNC(=O)COC(=O)NCCC1CCN(c2cc3ccccc3cn2)CC1` [Compound 166, 2-(Methylamino)-2-oxoethyl 2-[1-(3-isoquinolyl)-4-piperidyl]ethylcarbamate], for which the “Reduction in the number of tractions (%)” value is on record as −62% (a).

The same series, now with this note: (b) 3 mg/kg p.o. at 1 hour, PBQ 2 mg/kg i.p.
Take `CNC(=O)COC(=O)NCCC1CCN(c2cccc(C)n2)CC1` [Compound 47, 2-(Methylamino)-2-oxoethyl 2-[1-(6-methyl-2-pyridyl)-4-piperidyl]ethylcarbamate hydrochloride]: the “Reduction in the number of tractions (%)” value is recorded as −63% (b).
Still for that read-out and setting: the figure for `CNC(=O)COC(=O)NCCC1CCN(c2ccc3ccccc3n2)CC1` [Compound 126, 2-(Methylamino)-2-oxoethyl 2-[1-(2-quinolyl)-4-piperidyl]ethylcarbamate] is −43% (b).

System in the next series: not given
Test: not given
Details: not given
For `NC(=O)COC(=O)NCC1CCN(c2cccc(-c3ccccc3)n2)CC1` [Compound 58, 2-Amino-2-oxoethyl 2-[1-(6-phenyl-2-pyridyl)-4-piperidyl]methylcarbamate], the melting point (as a rule, the temperature, or range, at which the solid turns liquid) was 131 to 132 °C.
On the same count and under the same terms, the figure for `CNC(=O)COC(=O)NCCC1CCN(c2cncc3ccccc23)CC1` (as salt: hydrochloride) [Compound 172, 2-(Methylamino)-2-oxoethyl 2-[1-(4-isoquinolyl)-4-piperidyl]ethylcarbamate hydrochloride] is 205 to 210 °C.
For the molecule `CNC(=O)COC(=O)NCCC1CCN(c2cccc(CC(C)C)n2)CC1` [Compound 49, 2-(Methylamino)-2-oxoethyl 2-[1-(6-isobutyl-2-pyridyl)-4-piperidyl]ethylcarbamate], the melting point lay within 97 to 99 °C.
In turn, `NC(=O)COC(=O)NCCC1CCN(c2cccc(C(F)(F)F)c2)CC1` [Compound 44, 2-Amino-2-oxoethyl 2-{1-[3-(trifluoromethyl)phenyl]-4-piperidyl}ethylcarbamate] came in with a melting point of 140 to 142 °C.
Same read-out and setting: next, `CNC(=O)COC(=O)NCCN1CCN(c2cccc3ccccc23)CC1` (as salt: hydrochloride) [Compound 38, 2-(Methylamino)-2-oxoethyl 2-[4-(1-naphthyl)-1-piperazinyl]ethylcarbamate hydrochloride]: 166 °C; `CNC(=O)COC(=O)NCC1CCN(c2nccc3ccccc23)CC1` (as salt: hydrochloride) [Compound 154, 2-(Methylamino)-2-oxoethyl [1-(1-isoquinolyl)-4-piperidyl]methylcarbamate hydrochloride]: 208 to 212 °C (dec.).
The same measure, in the same setting: next, `CNC(=O)COC(=O)NCCC1CCN(c2ccc3ccccc3n2)CC1` [Compound 126, 2-(Methylamino)-2-oxoethyl 2-[1-(2-quinolyl)-4-piperidyl]ethylcarbamate]: 125 to 128 °C.
Same read-out and setting: the figure for `CNC(=O)COC(=O)NCCC1CCN(c2cccc(C)n2)CC1` (as salt: hydrochloride) [Compound 47, 2-(Methylamino)-2-oxoethyl 2-[1-(6-methyl-2-pyridyl)-4-piperidyl]ethylcarbamate hydrochloride] is 95 to 100 °C; for `CNC(=O)COC(=O)NCCC1CCN(c2cc3ccccc3cn2)CC1` [Compound 166, 2-(Methylamino)-2-oxoethyl 2-[1-(3-isoquinolyl)-4-piperidyl]ethylcarbamate] it is 156 to 158 °C.
As to `NC(=O)COC(=O)NCCC1CCN(c2ccc3ccccc3n2)CC1` [Compound 127, 2-Amino-2-oxoethyl 2-[1-(2-quinolyl)-4-piperidyl]ethylcarbamate], the melting point lay within 135 to 137 °C.
Molecule `CNC(=O)COC(=O)NCCC1(F)CCN(c2ccc3ccccc3n2)CC1` [Compound 128, 2-(Methylamino)-2-oxoethyl 2-[4-fluoro-1-(2-quinolyl)-4-piperidyl]ethylcarbamate] showed a melting point of 147 to 149 °C.
The same measure, in the same setting: next, `NC(=O)COC(=O)NCCC1CCN(c2ccc3cc(Cl)ccc3n2)CC1` [Compound 137, 2-Amino-2-oxoethyl 2-[1-(6-chloro-2-quinolyl)-4-piperidyl]ethylcarbamate]: 189 to 191 °C; `NC(=O)COC(=O)NCCC1CCN(c2nccc3cc(F)ccc23)CC1` [Compound 158, 2-Amino-2-oxoethyl 2-[1-(6-fluoro-1-isoquinolyl)-4-piperidyl]ethylcarbamate]: 135 to 139 °C.
On the same count and under the same terms, the figure for `CNC(=O)COC(=O)NCCC1CCN(c2ccc3c(Cl)cccc3n2)CC1` [Compound 130, 2-(Methylamino)-2-oxoethyl 2-[1-(5-chloro-2-quinolyl)-4-piperidyl]ethylcarbamate] is 158 to 162 °C.

Source of the values: US8034818B2, “Therapeutic uses of derivatives of piperidinyl- and piperazinyl-alkyl carbamates” (Sanofi-Aventis, priority 2004, dated 2011).
